Measured values as given in PMC10449633 (Nature Chemical Biology, 2023).
“And” between values parts separate entries of the source, which are not always exact repeats. Equal entries are not always repeated. Where two headings read alike, the source gives them in different places. Numbered stars: 1 amine (or outer) side, 2 acyl side, 3 side chain; on linkers, the order of the positions; unused ones are H or OH. Square brackets hold non-standard residues; d marks the D form. Peptide text beside a SMILES is read from it. NMeTrp(1-(4-Br-benzyl)) = CN[C@@H](Cc1cn(Cc2ccc(Br)cc2)c2ccccc12)C(=O)O; X3 = CCn1cc(C[C@@H](C(=O)[*:2])N(C)[*:1])c2ccccc21; Butanoyl(2R-oxy,4-CN) = N#CCC[C@@H](O)C(=O)O; Abu(4,4,4-F3) = N[C@@H](CC(F)(F)F)C(=O)O; NMeL = CN[C@@H](CC(C)C)C(=O)O; NMeA = CN[C@@H](C)C(=O)O

What was measured:
[1] = target: T1, Sec61 (Homo sapiens, UniProt P61619); experiment: cell-based; details: for IC50: 24 h, range in brackets
T1 construct: endogenous in cells

[2] = tested on: SARS-CoV-2; format: cell-based; details: 48 h
[3] = tested on: SARS-CoV-2; format: cell-based; details: 48 h; remark: listed apart in the source
[4] = tested on: SARS-CoV-2; details: infected 48 h
[5] = tested on: collagen antibody-induced arthritis in BALB/c mice; experiment: Anticollagen antibody-induced arthritis model, clinical scores; format: in vivo, mouse; details: individual mice

T1 sequence (P60059 whole entry): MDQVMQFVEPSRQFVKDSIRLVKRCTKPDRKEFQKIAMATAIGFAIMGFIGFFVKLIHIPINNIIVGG
T1 sequence (P61619 whole entry): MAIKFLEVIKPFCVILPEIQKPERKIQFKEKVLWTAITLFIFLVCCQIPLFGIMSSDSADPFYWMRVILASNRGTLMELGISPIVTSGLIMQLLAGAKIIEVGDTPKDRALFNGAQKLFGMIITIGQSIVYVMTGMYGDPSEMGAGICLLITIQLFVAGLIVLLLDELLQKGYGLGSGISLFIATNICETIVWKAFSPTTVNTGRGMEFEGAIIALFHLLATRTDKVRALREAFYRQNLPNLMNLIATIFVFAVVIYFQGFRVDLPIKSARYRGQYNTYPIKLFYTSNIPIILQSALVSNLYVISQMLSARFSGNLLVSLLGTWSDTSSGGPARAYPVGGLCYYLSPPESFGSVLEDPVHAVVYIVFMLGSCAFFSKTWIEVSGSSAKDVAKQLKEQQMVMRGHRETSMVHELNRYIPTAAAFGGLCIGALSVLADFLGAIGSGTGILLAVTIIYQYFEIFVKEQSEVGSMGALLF
T1 sequence (P60468 whole entry, further chain): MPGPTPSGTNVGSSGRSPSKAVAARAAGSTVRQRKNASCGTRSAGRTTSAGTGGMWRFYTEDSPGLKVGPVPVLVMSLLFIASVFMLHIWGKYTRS

CCn1cc(C[C@H]2C(=O)N[C@@H](CC(C)C)C(=O)N(C)[C@@H](C)C(=O)O[C@H](CCC#N)C(=O)N[C@@H](CC(F)(F)F)C(=O)N(C)[C@@H](CC(C)C)C(=O)N[C@@H](CC(F)(F)F)C(=O)N2C)c2ccccc21 [KZR-9508] (cyclo(L[NMeA][Butanoyl(2R-oxy,4-CN)][Abu(4,4,4-F3)][NMeL][Abu(4,4,4-F3)][X3]))
selectivity compared with KZR-8445 [1]: greater selectivity | IC50 ([1]; HER3 signal peptide-GLuc, read-out: IC50 (nM) HER3): 103 nM and ~100 nM | IC50 ([1]; PD1 signal peptide-GLuc, read-out: IC50 (nM) PD1): 388 nM | loss of potency relative to KZR-8445 ([1]; four of five GLuc reporters): 10–20 fold | IC50 ([1]; full-length IL-2-GLuc, read-out: IC50 (nM) IL-2): 1420 nM | IC50 ([1]; full-length TNFα-GLuc, read-out: IC50 (nM) TNFα): 908 nM | IC50 ([1]; prolactin signal peptide-GLuc, read-out: IC50 (nM) Prolactin): 25600 nM

CC[C@H]1CN2CCc3cc(OC)c(OC)cc3[C@@H]2C[C@@H]1C[C@H]1NCCc2cc(OC)c(OC)cc21 [Emetine, reference compound]
viral genome copy number ([2]; 0.01 uM): 24100000 and 12600000 and 15400000 | viral genome copy number ([2]; 0.04 uM): 19500000 and 12600000 and 14500000 | viral genome copy number ([2]; 0.12 uM): 9690000 and 6770000 and 10700000 | viral genome copy number ([2]; 1.11 uM): 81000 and 73500 and 71100 | viral genome copy number ([2]; 3.33 uM): 85400 and 62200 and 61600 | viral genome copy number ([2]; 10 uM): 58200 and 54400 and 71200 | infectious virus particle production ([3]; 1.11 uM): 632.456 TCID50 per milliliter | infectious virus particle production ([3]; 3.33 uM): 632.456 TCID50 per milliliter and 430.887 TCID50 per milliliter | infectious virus particle production ([3]; 10 uM): 632.456 TCID50 per milliliter | cell viability ([4]; 0.01 uM): 70.4141 and 72.6149 and 69.2712 | cell viability ([4]; 0.04 uM): 77.6184 and 78.5394 and 67.5514 | cell viability ([4]; 0.12 uM): 91.8387 and 89.8998 and 85.3326 | cell viability ([4]; 0.37 uM): 98.5387 and 106.593 and 107.116 | cell viability ([4]; 1.11 uM): 85.9306 and 97.0439 and 95.1349 | cell viability ([4]; 3.33 uM): 86.5239 and 91.9706 and 91.8345 | cell viability ([4]; 10 uM): 89.2076 and 95.1684 and 93.0072

CCn1cc(C[C@H]2C(=O)N[C@@H](CC(C)C)C(=O)N(C)[C@@H](C)C(=O)O[C@H](CCC#N)C(=O)N[C@@H](CC(F)(F)F)C(=O)N(C)[C@@H](CC(C)C)C(=O)N[C@@H](CC(F)(F)F)C(=O)N2C)c2ccccc21 [KZR-0509508] (cyclo(L[NMeA][Butanoyl(2R-oxy,4-CN)][Abu(4,4,4-F3)][NMeL][Abu(4,4,4-F3)][X3]))
GLuc reporter raw signal (replicates) ([1]; HER3, Concentration 0.32): 2917200 and 2920600 and 2895100 | GLuc reporter raw signal (replicates) ([1]; HER3, Concentration 40): 2324600 and 2421500 and 2482600 | GLuc reporter raw signal (replicates) ([1]; HER3, Concentration 200): 860870 and 901980 and 850270 | GLuc reporter raw signal (replicates) ([1]; HER3, Concentration 1000): 128950 and 127590 and 122180 | GLuc reporter raw signal (replicates) ([1]; HER3, Concentration 5000): 21107 and 19954 and 21458 | GLuc reporter raw signal (replicates) ([1]; HER3, Concentration 25000): 18661 and 19673 and 20195 | GLuc reporter raw signal (replicates) ([1]; IL2, Concentration 0.32): 2617800 and 2680800 and 2713900 | GLuc reporter raw signal (replicates) ([1]; IL2, Concentration 8): 2560100 and 2737500 and 2592900 | GLuc reporter raw signal (replicates) ([1]; IL2, Concentration 40): 2448500 and 2433000 and 2516300 | GLuc reporter raw signal (replicates) ([1]; IL2, Concentration 200): 2434300 and 2250900 and 2386200 | GLuc reporter raw signal (replicates) ([1]; IL2, Concentration 1000): 1366100 and 1331100 and 1340300 | GLuc reporter raw signal (replicates) ([1]; IL2, Concentration 5000): 148660 and 137160 and 137620 | GLuc reporter raw signal (replicates) ([1]; IL2, Concentration 25000): 72344 and 71940 and 72808 | GLuc reporter raw signal (replicates) ([1]; PD1, Concentration 0.32): 1140200 and 1151600 and 1079300 | GLuc reporter raw signal (replicates) ([1]; PD1, Concentration 8): 1090400 and 1094000 and 1069700 | GLuc reporter raw signal (replicates) ([1]; PD1, Concentration 40): 1001600 and 1054300 and 960410 | GLuc reporter raw signal (replicates) ([1]; PD1, Concentration 200): 810270 and 826880 and 727000 | GLuc reporter raw signal (replicates) ([1]; PD1, Concentration 1000): 298160 and 288700 and 294700 | GLuc reporter raw signal (replicates) ([1]; PD1, Concentration 5000): 19269 and 21595 and 21074 | GLuc reporter raw signal (replicates) ([1]; PD1, Concentration 25000): 12135 and 12576 and 11044 | GLuc reporter raw signal (replicates) ([1]; Prolactin, Concentration 0.32): 8343700 and 8651000 and 8237500 | GLuc reporter raw signal (replicates) ([1]; Prolactin, Concentration 8): 8140000 and 8910000 and 8852700 | GLuc reporter raw signal (replicates) ([1]; Prolactin, Concentration 40): 8482300 and 8946000 and 7991900 | GLuc reporter raw signal (replicates) ([1]; Prolactin, Concentration 200): 8151300 and 9013100 and 8191700 | GLuc reporter raw signal (replicates) ([1]; Prolactin, Concentration 1000): 7614900 and 8029100 and 7622300 | GLuc reporter raw signal (replicates) ([1]; Prolactin, Concentration 5000): 6257700 and 6043200 and 6299800 | GLuc reporter raw signal (replicates) ([1]; Prolactin, Concentration 25000): 4760600 and 4742900 and 4623400 | GLuc reporter raw signal (replicates) ([1]; TNFa, Concentration 0.32): 157540 and 153990 and 156290 | GLuc reporter raw signal (replicates) ([1]; TNFa, Concentration 8): 177590 | GLuc reporter raw signal (replicates) ([1]; TNFa, Concentration 40): 174140 and 177930 and 180980 | GLuc reporter raw signal (replicates) ([1]; TNFa, Concentration 200): 165100 and 188550 and 172890 | GLuc reporter raw signal (replicates) ([1]; TNFa, Concentration 1000): 101080 and 103620 and 107580 | GLuc reporter raw signal (replicates) ([1]; TNFa, Concentration 5000): 30162 and 28185 and 30634 | GLuc reporter raw signal (replicates) ([1]; TNFa, Concentration 25000): 17845 and 17474 and 16301

CC(C)C[C@@H]1NC(=O)[C@H](Cc2cn(Cc3ccc(Br)cc3)c3ccccc23)N(C)C(=O)[C@H](CC(F)(F)F)NC(=O)[C@H](CC(C)C)N(C)C(=O)[C@H](CC(F)(F)F)NC(=O)[C@@H](CCC#N)OC(=O)[C@H](C)N(C)C1=O [KZR-508445] (cyclo(L[NMeA][Butanoyl(2R-oxy,4-CN)][Abu(4,4,4-F3)][NMeL][Abu(4,4,4-F3)][NMeTrp(1-(4-Br-benzyl))]))
Clinical score ([5]; 2.5 mg/kg IV QODx3, day 13): 9 (2×) and 6 and 11 (2×) and 4 and 12 and 8 and 13 and 7 | Clinical score ([5]; 2.5 mg/kg IV QODx3, day 14): 9 (2×) and 5 and 11 (2×) and 2 and 12 and 10 and 13 and 7 | Clinical score ([5]; 5 mg/kg IV QODx3, day 13): 11 (2×) and 5 and 10 and 4 (3×) and 8 and 7 and 9 | Clinical score ([5]; 5 mg/kg IV QODx3, day 14): 12 and 5 and 8 (2×) and 4 (2×) and 3 and 6 and 9 and 11 | Clinical score ([5]; 10 mg/kg IV QODx3, day 13): 4 and 6 (3×) and 9 (2×) and 5 (2×) and 3 and 7 | Clinical score ([5]; 10 mg/kg IV QODx3, day 14): 5 (3×) and 7 (2×) and 9 and 6 and 8 (2×) and 3 | Clinical score ([5]; 20 mg/kg IV QODx3, day 4): 1 (4×) and 2 (2×) | Clinical score ([5]; 20 mg/kg IV QODx3, day 13): 1 (2×) and 3 (2×) and 2 and 0 and 4 | Clinical score ([5]; 20 mg/kg IV QODx3, day 14): 1 (2×) and 3 (3×) and 2 and 0 | Clinical score ([5]; 20 mg/kg IV QW, day 13): 0 and 2 and 9 and 6 (2×) and 7 (2×) and 8 (2×) and 4 | Clinical score ([5]; 20 mg/kg IV QW, day 14): 0 and 2 and 9 (2×) and 7 (2×) and 6 and 8 (2×) and 5

C[C@@H]1C[C@H]2[C@@H]3CCC4=CC(=O)C=C[C@]4(C)[C@@]3(F)[C@@H](O)C[C@]2(C)[C@@]1(O)C(=O)CO [dexamethasone, reference compound]
Clinical score ([5]; 1.5mg/kg IP QODx3, day 4): 1 (5×) and 2 (4×) and 3 | Clinical score ([5]; 1.5mg/kg IP QODx3, day 5): 3 (5×) and 4 (2×) and 2 and 5 (2×) | Clinical score ([5]; 1.5mg/kg IP QODx3, day 6): 4 (2×) and 6 (6×) and 2 and 5 | Clinical score ([5]; 1.5mg/kg IP QODx3, day 7): 6 (4×) and 4 and 7 (3×) and 5 and 8 | Clinical score ([5]; 1.5mg/kg IP QODx3, day 10): 6 (3×) and 7 (2×) and 9 (2×) and 5 and 11 and 8 | Clinical score ([5]; 1.5mg/kg IP QODx3, day 11): 7 (3×) and 6 (2×) and 8 (2×) and 4 and 9 and 10 | Clinical score ([5]; 1.5mg/kg IP QODx3, day 12): 7 (4×) and 6 (2×) and 9 (3×) and 3 | Clinical score ([5]; 1.5mg/kg IP QODx3, day 13): 7 (3×) and 5 and 6 (2×) and 8 (2×) and 3 and 9 | Clinical score ([5]; 1.5mg/kg IP QODx3, day 14): 6 (2×) and 5 and 8 (2×) and 7 (2×) and 3 and 10 and 9
